US20240279232A1, “USE OF SUBSTITUTED 5-(4-METHYL-6-PHENYL-4H-BENZO[F]IMIDAZO[1,5-A][1,4] DIAZEPIN-3-YL)-1,2,4-O[…] THE TREATMENT OF INFLAMMATORY CONDITIONS” (priority 2021, published 2024)
pKi: −log10 of the molar value. Read-outs that look alike come from different tables or passages of the source.

Legend:
MOR (μ opioid receptor) = biological target: T1, MOR (μ opioid receptor) (Homo sapiens, UniProt P35372); experiment: MOR radioligand binding ([3H]-DAMGO, HEK293 cell homogenates); settings: Percent inhibition at 10,000 nM; [3H]-DAMGO
T1 construct: expressed in transfected cells; host or cells: HEK293
T1 sequence (P35372 whole entry, species assumed): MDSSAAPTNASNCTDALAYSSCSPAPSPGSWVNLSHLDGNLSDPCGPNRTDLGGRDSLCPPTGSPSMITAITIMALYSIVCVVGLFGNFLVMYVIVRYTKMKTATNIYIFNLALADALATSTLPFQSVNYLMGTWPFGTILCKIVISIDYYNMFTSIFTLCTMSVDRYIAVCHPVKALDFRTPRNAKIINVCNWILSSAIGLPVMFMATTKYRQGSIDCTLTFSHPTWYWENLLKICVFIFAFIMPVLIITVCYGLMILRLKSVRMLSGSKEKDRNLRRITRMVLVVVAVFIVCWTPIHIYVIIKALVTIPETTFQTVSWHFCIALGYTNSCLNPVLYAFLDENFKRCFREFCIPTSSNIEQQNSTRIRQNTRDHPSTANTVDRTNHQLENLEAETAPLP
Protocol: (§1) Radioligand binding assays. Detailed protocols for the primary and secondary radioligand binding assays can be found in the National Institute of Mental Health's Psychoactive Drug Screening Program (NIMH PDSP) Assay Protocol Book (Roth, 2018). Briefly, primary and secondary radioligand binding assays are carried out in a final of volume of 125 μL per well in appropriate binding buffer. […] Total binding and nonspecific binding are determined in the absence and presence of 10 μM of appropriate reference compound (Naltrindole DOR, Salvinorin A KOR and DAMGO MOR). In brief, plates are usually incubated at room temperature and in the dark for 90 min. Reactions are stopped by vacuum filtration onto 0.3% polyethyleneimine (PEI) soaked 96-well filter mats using a 96-well Filtermate harvester, followed by three washes with cold PBS buffer. Scintillation cocktail is then melted onto the microwave-dried filters on a hot plate and radioactivity counted in a Microbeta counter. The data (n=6) were analyzed by nonlinear regression.
(§2) Ligand affinities were determined for KOR (κ opioid receptor), DOR (δ opioid receptor), and MOR (μ opioid receptor) using radioligand binding assays at a screening concentration of 10,000 nM. For these assays, cell homogenates from HEK293 cells that overexpressed KOR, MOR, and DOR were used in combination with [^3H]-U69593, [^3H]-DAMGO, and [^3H]-DADLE, respectively Compounds that exceeded more than 50% radioligand displacement were investigated further in concentration-dependent experiments to determine Ki values. Gamma aminobutyric acid type A receptor (GABAAR) binding was determined with rat brain homogenate and ^3H-flunitrazepam. Flunitrazepam binds GABAAR subtypes that consists of two α and two β subunits and one γ or δ subunit. Strong affinities to α1-3,5,6β1-3γ1-y/δ GABAARS have been reported for flunitrazepam. The […] GABAAR subtype expression in the brain includes 43% α1β2γ2, 15% α2β3γ2+8% α2βγ1, 10% α3β3γ2, 6% α4βγ/δ, 4% α5β3γ2, and 4% α6β2γ2/δ. Therefore, compounds with high affinity toward the synaptic benzodiazepine-sensitive receptors (BZR) predominately bind α1-3β2-3γ1-2 GABAARs. Alternatively, compounds with weak BZR binding might be selective for α4-6βγ/δ GABAARs.
(§3) Psychoactive Drug Screening Program. Detailed protocols for the primary and secondary radioligand binding assays can be found in the National Institute of Mental Health's Psychoactive Drug Screening Program (NIMH PDSP) Assay Protocol Book. Briefly, primary and secondary radioligand binding assays are carried out in a final of volume of 125 μL per well in appropriate binding buffer. The radioactive ligand concentration is close to the Kd. Total binding and nonspecific binding are determined in the absence and presence of 10 μM of appropriate reference compound, respectively. In brief, plates are usually incubated at room temperature and in the dark for 90 min. Reactions are stopped by vacuum filtration onto 0.3% polyethyleneimine (PEI) soaked 96-well filter mats using a 96-well Filtermate harvester, followed by three washes with cold PBS buffer. Scintillation cocktail is then melted onto the microwave-dried filters on a hot plate and radioactivity counted in a Microbeta counter. The data (n=6) were analyzed by nonlinear regression.

Mouse microglia [1] = experiment: Cell viability (CellTiter-Glo), mouse microglia; format: cell-based; settings: CellTiter-Glo
Protocol: (§4) Next, a library of GABAAR ligands was investigated to identify compounds that reduce the production of NO as a marker of anti-inflammatory activity. […] NO was quantified with a Greiss assay. Cell viability was determined with CellTiter-Glo.
(§5) Nitric oxide production (Griess assay) and viability assay (CellTiter-Glo). 80 μL of mouse microglia culture (1×10^6 cells/mL) was plated into sterile 384 well plates representing non-activated wells. The remaining culture was activated with 50 ng/ml LPS (Invivogen, NC9836) and 150 U/mL IFNγ (R&D Systems, 485MI100) and distributed into the 384 well plates. […] Assay plates were incubated for approximately 24 hours (unless otherwise noted) at 37° C., centrifuged, and 40 μL of supernatant transferred to a new plate for analysis using the Griess Assay (Promega, Madison, WI). Absorbance at 530 nm was measured using a TECAN Infinite M1000 plate reader. The remaining 40 μL containing cells was analyzed for toxicity by the CellTiter-Glo Assay (Promega, Madison, WI). Luminescence was read using a TECAN Infinite M1000 plate reader.

Mouse microglia [2] = experiment: NO production (Griess assay), LPS/IFNγ-activated mouse microglia; format: cell-based; settings: for Inhibition of NO production (%) Mouse microglia 50 μM: 24 hours, 1 μM GABA, LPS/IFNγ
Protocol: as §4
Cell culture. A) HMC3 Microglia (CRL-3304) were maintained in treated cell culture flasks (Nunc, 156472) with EMEM (Corning, 10010CV) supplemented with 10% heat-inactivated FBS (Corning, 35011CV) and 100 U/mL penicillin and 100 μg/mL streptomycin (Hyclone, SV30010). Cultures were maintained at 37° C. and 5% CO2. When cells reached a density of 7×10^4 cells/mL, cultures were passaged with 0.25% Trypsin (Corning, 25-053-CI) and resuspended to a density no lower than 10,000 cells/mL. B) Human and mouse microglia cell lines were a gift from Dr. David Alvarez-Carbonell at Case Western Reserve University (Cleveland, OH). Microglia were cultured in cell culture treated flasks (Nunc, 156472) with DME/F12 media (Hyclone, SH30023.01) supplemented with 10% heat-inactivated FBS (Corning, 35011CV), 100 U/mL penicillin/100 μg/mL streptomycin (Hyclone, SV30010), and Normocin (Invivogen, ant-nr). Cultures were maintained at 37° C. and 5% CO2. […] Cultures were maintained at 37° C. and 5% CO2. Cells were passaged when they reached a density of approximately 3×10^6 cells/mL using cell scrapers (VWR, 10062-906) to lift cells from flask surface and resuspended at densities of approximately 500,000 cells/mL.
as §5

DOR (δ opioid receptor) = biological target: T2, DOR (δ opioid receptor) (Homo sapiens, UniProt P41143); experiment: DOR radioligand binding ([3H]-DADLE, HEK293 cell homogenates); settings: Percent inhibition at 10,000 nM; [3H]-DADLE
T2 construct: expressed in transfected cells; host or cells: HEK293
T2 sequence (P41143 whole entry): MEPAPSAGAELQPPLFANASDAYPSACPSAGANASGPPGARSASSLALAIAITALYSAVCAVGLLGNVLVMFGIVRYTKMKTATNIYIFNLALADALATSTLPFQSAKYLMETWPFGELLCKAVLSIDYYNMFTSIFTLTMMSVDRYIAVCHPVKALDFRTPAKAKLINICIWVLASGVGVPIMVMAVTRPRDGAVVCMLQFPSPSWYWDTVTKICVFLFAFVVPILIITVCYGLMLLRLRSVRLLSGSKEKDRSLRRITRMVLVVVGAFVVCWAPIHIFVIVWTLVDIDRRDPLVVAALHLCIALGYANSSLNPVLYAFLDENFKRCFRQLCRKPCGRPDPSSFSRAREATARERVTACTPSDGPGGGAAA
Protocol: as §1, §2, §3

[3] = test system: BZR (benzodiazepine site of GABAAR); experiment: GABAAR/BZR binding, rat brain homogenate with 3H-flunitrazepam; settings: rat brain homogenate, 3H-flunitrazepam; for BZR %: Percent inhibition at 10,000 nM
Protocol: as §2, §3

KOR (κ opioid receptor) = biological target: T3, KOR (κ opioid receptor) (Homo sapiens, UniProt P41145); experiment: KOR radioligand binding ([3H]-U69593, HEK293 cell homogenates); settings: for inhibition at 10 µM: Percent inhibition at 10,000 nM
T3 construct: expressed in transfected cells; host or cells: HEK293 (stably transfected)
T3 sequence (P41145 whole entry): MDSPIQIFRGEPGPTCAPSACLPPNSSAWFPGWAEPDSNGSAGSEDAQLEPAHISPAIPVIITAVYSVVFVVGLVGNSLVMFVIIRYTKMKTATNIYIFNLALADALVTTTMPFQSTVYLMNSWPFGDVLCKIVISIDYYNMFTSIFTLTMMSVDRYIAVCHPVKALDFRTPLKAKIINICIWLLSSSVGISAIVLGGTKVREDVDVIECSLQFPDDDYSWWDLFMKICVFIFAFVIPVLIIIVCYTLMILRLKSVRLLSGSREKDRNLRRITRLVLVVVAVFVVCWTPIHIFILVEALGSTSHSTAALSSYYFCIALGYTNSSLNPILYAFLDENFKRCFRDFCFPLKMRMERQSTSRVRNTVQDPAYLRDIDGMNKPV
Protocol: as §1, §2, §3

HEPG2 = experiment: Viability assay (CellTiter-Glo), HEPG2; format: cell-based, human; settings: 120 μM, CellTiter-Glo
Protocol: (§6) The screen identified several compounds that reduced NO in activated microglia and macrophages. The tested compounds included achiral and chiral imidazodiazepines and benzodiazepines. In general, microglia were more sensitive to compound treatment with more pronounced reduction of NO than macrophages. […] Cell viability assays with HEK293 (kidney) and HepG2 (liver) cells were conducted in a concentration dependent manner. A limited number of compounds, such as GL-III-63, GL-III-76A, and GL-III-77, were toxic at 120 μM.
(§7) Viability assay. Human liver hepatocellular carcinoma (HEPG2) and human embryonic kidney 293T (HEK293T) cell lines were purchased (ATCC) and cultured in 75 cm^2 flasks (CellStar). Cells were grown in DMEM/High Glucose (Hyclone, #SH3024301) media to which non-essential amino acids (Hyclone, #SH30238.01), 10 mM HEPES (Hyclone, #SH302237.01), 5×10^6 units of penicillin and streptomycin (Hyclone, #SV30010), and 10% of heat inactivated fetal bovine serum (Gibco, #10082147) were added. Cells were harvested using 0.05% Trypsin (Hyclone, #SH3023601), washed with PBS, and dispensed into sterile white, optical bottom 384-well plates (NUNC, #142762). After three hours, small molecule DMSO solutions were transferred with a Tecan Freedom EVO liquid handling system equipped with a 100 nL pin tool (V&P Scientific). The controls were 3-dibutylamino-1-(4-hexyl-phenyl)-propan-1-one (25 mM in DMSO, positive control) and DMSO (negative control). The cells were incubated for 48 hours followed by the addition of CellTiter-Glo™, a luminescence-based cell viability assay (Promega, Madison, WI). All luminescence readings were performed on a Tecan Infinite M1000 plate reader. The assay was carried out in quadruplet with two independent runs. The data were analyzed by nonlinear regression.

HEK293 = experiment: Viability assay (CellTiter-Glo), HEK293; format: cell-based, human; settings: 120 μM, CellTiter-Glo
Protocol: as §6, §7

| Structure (SMILES) | inhibition at 10 µM (MOR (μ opioid receptor)) [%] | Cell viability (%) Mouse microglia 50 μM (Mouse microglia [1]) [%] | inhibition at 10 µM (DOR (δ opioid receptor)) [%] | BZR % [3] [%] | pKi [3] | inhibition at 10 µM (KOR (κ opioid receptor); [3H]-U69593) [%] | further results |
| --- | --- | --- | --- | --- | --- | --- | --- |
| C#Cc1ccc2c(c1)C(c1ccccn1)=NCc1c(-c3nc(CC)no3)ncn1-2 [MP-III-080] | 0 | 100 ± 14 | 0 | 88 | 6.52 | 47 | inhibition at 50 µM (Mouse microglia [2]; Mus musculus, Microglia, 24 h): 0% |
| CCOC(=O)c1ncn2c1[C@H](C)N=C(c1ccccc1F)c1cc(Br)ccc1-2 [SH-I-048B] | 0 |  | 0 | 61 | 7.02 | 95 | pKi (KOR (κ opioid receptor)): 7.20 |
| Fc1ccccc1C1=NCc2c(-c3cnco3)ncn2-c2ccc(Br)cc21 [SH-I-85] | 16 |  | 33 | 99 | 7.96 | 91 | pKi (KOR (κ opioid receptor); concentration-dependent, [3H]-U69593, read-out: KOR (Ki)): 6.79 |
| C#Cc1ccc2c(c1)C(c1ccccn1)=NCc1c(C(=O)O)ncn1-2 [SR-II-54] | 8 |  | 1 | 80 | 7.16 | 9 |  |
| C#Cc1ccc2c(c1)C(c1ccccc1)=NCc1c(C(=O)NC)ncn1-2 [YT-III-31] |  | 100 ± 8 |  |  |  |  | Inhibition of NO production (%) Mouse microglia 50 μM (Mouse microglia [2]): 0 ± 2%; Cell viability (%) HEPG2 120 μM (HEPG2): 100 ± 7%; Cell viability (%) HEK293 120 μM (HEK293): 96 ± 10% |
| C#Cc1ccc2c(c1)C(c1ccccc1F)=NCc1c(C(=O)OCCCOC(=O)c3ncn4c3CN=C(c3ccccc3F)c3cc(C#C)ccc3-4)ncn1-2 [YT-III-271] |  | 100 ± 3 |  |  |  |  | Inhibition of NO production (%) Mouse microglia 50 μM (Mouse microglia [2]): 0 ± 4% |
| C[C@@H]1C[C@H]2[C@@H]3CCC4=CC(=O)C=C[C@]4(C)[C@@]3(F)[C@@H](O)C[C@]2(C)[C@@]1(O)C(=O)CO [dexamethasone, reference compound] |  |  |  |  |  |  | cell viability / cytotoxicity in the NO competition experiments (in words) (Mouse microglia [1]; activated microglia): without cell toxicity |
